Paper PMC6278556, “An Accurate and Effective Method for Measuring Osimertinib by UPLC-TOF-MS and Its Pharmacokinetic Study in Rats” (Molecules, 2018)
Where two headings read alike, the source gives them in different places.

Experiments:
[1] = Pharmacokinetic study in SD rats after oral administration; type: in vivo; details: n = 7, mean ± SD, non-compartmental
Procedure: The pharmacokinetic study of osimertinib was applied to seven male SD rats using oral administration by gavage and the dosage was 4.5 mg/kg. Osimertinib was diluted and suspended by 0.5% sodium carboxymethylcellulose. No less than 0.3 mL rat plasma was sampled at 0, 1, 2, 3, 4, 5, 6, 7, 8, 10, 12, 24, 36, and 48 h after oral administration through the oculi chorioideae vein under the condition of light ether anesthesia. After 10 min centrifuging of all analytes at 5000× g, the supernatant was collected and frozen at −40 °C until analysis. The use of animals in the presented study was permitted by the Ethics Committee of the Hebei Medical University, and all animal studies were carried out according to the Guidance for the Care and Use of Laboratory Animals of the US National Institute of Health.
Ten microliters of IS solution (500 ng/mL) was prepared in 100 μL rat plasma and vortex-mixed for 20 s. After that step, 500 μL of acetonitrile was added to precipitate the protein. Then, the mixture was vortexed for 1 min and centrifuged at 12,000 rpm for 10 min. The supernatant was transferred into a new Eppendorf tube and evaporated to dryness through nitrogen gas at 45 °C. After 100 μL of acetonitrile was added to reconstitute the residue and vortexed for 1 min, all samples were centrifuged at 12,000× g for 10 min. Finally, 80 μL of the supernatant was collected and injected into UPLC sample vials before use.
Dynamic background subtraction is a novel technique performed using the Analyst software (AB Sciex, Foster City, CA, USA). In addition, the data of the pharmacokinetic study of osimertinib were collected and calculated by the DAS 2.1.1 software in the non-compartmental mode (Mathematical Pharmacology Professional Committee of China, Shanghai, China).

[2] = Stability of osimertinib in rat plasma under various storage conditions; type: in vitro ADME
Procedure: The stabilities of this method, which include the freeze–thaw stability, autosampler stability, short-term stability and long-term stability, were evaluated through three QC samples after the sample preparation method. […] In addition, the long-term stability was evaluated through the determination of three QC samples that were kept at −80 °C for 30 days. All samples were considered stable with RSDs < ±15%.

[3] = stated without source; cited from earlier work
[4] = Sprague-Dawley (SD), rat, plasma, male SD rats, oral 4.5 mg/kg

**Q.** Which AUC(0-inf) [1, 4] does the source give for `C=CC(=O)Nc1cc(Nc2nccc(-c3cn(C)c4ccccc34)n2)c(OC)cc1N(C)CCN(C)C` [Osimertinib, N-(2-{2dimethylaminoethyl-methylamino}-4-methoxy-5-{[4-(1-methylindol-3-yl)pyrimidin-2yl]amino}phenyl)prop-2-enamide] here?
**A.** The AUC(0-inf) was 426 ± 81.7 ng·h/mL.

**Q.** What about the AUC(0-t) [1, 4] of the same molecule?
**A.** Its AUC(0-t) is 382 ± 69 ng·h/mL.

**Q.** And the Cmax [1, 4]?
**A.** Its Cmax is 28.5 ± 3.97 ng/mL.

**Q.** What about the MRT [1, 4] of the same molecule?
**A.** The MRT was 14.5 ± 1.91 h.

**Q.** What about the Vd/F ([1]; Sprague-Dawley (SD), rat, plasma, male SD rats, oral 4.5 mg/kg, read-out: Vz/F (distribution volume)) of the same molecule?
**A.** Its Vd/F is 234 ± 66.7 L/kg.

**Q.** What about the half-life ([1]; Sprague-Dawley (SD), rat, plasma, male SD rats, oral 4.5 mg/kg, read-out: t1/2z (terminal half-life) (converted)) of the same molecule?
**A.** Its half-life is 15 ± 3.44 h.

**Q.** And the “CLz/F (clearance)” value ([1]; male SD rats, oral 4.5 mg/kg)?
**A.** The value was 180.7 ± 32.3 mL/min/kg.

**Q.** What about the tmax ([1]; male SD rats, oral 4.5 mg/kg, 4.5 mg/kg) of the same molecule?
**A.** The tmax was 4.80 ± 1.10 h.

**Q.** And the CL/F ([1]; male, Sprague-Dawley (SD), rat, plasma, po, 4.5 mg/kg, read-out: CLz/F (clearance) (converted))?
**A.** Its CL/F is ~181 mL/min/kg.

**Q.** What about the tmax ([1]; male, Sprague-Dawley (SD), rat, plasma, po, 4.5 mg/kg, read-out: tmax) of the same molecule?
**A.** Its tmax is 4.5 h.

**Q.** What about the Stability in words ([2]; plasma samples, storage temperature (−80 °C) for at least 30 days) of the same molecule?
**A.** The Stability in words was “stable”.

**Q.** And the Stability in words ([2]; rat plasma, autosampler temperature (4 °C) for 24 h)?
**A.** Its Stability in words is “good stability”.

**Q.** What about the Stability in words ([2]; rat plasma, room temperature (25 °C) for 24 h) of the same molecule?
**A.** The Stability in words was “good stability”.

**Q.** What about the Stability in words ([2]; rat plasma, three freeze (−80 °C) and thaw (0 °C) cycles) of the same molecule?
**A.** The Stability in words was “remained stable”.

**Q.** What about the pKa [3] of the same molecule?
**A.** Its pKa is 13.64.
